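Cells were grown in 96-well plates and exposed to each compound for 48 hours at five concentrations; endpoints were interpolated linearly between bracketing concentrations, or set to the highest concentration if not reached. At the GI50, growth is halved.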 Active and inactive are the calls of the source. No stated cut-off is given here; in the data, active = GI50 up to about 1.1 µM and inactive = higher.
Columns and labels:
Experiment in all cases: NCI anticancer screen, dose series, 48 h
[1] = tested on: 786-0
[2] = tested on: A498
[3] = tested on: A549
[4] = tested on: ACHN
[5] = tested on: BT-549
[6] = tested on: CCRF-CEM
[7] = tested on: COLO 205
[8] = tested on: DU-145
[9] = tested on: EKVX
[10] = tested on: HCC 2998
[11] = tested on: HCT-116
[12] = tested on: HCT-15
[13] = tested on: HOP-62
[14] = tested on: HOP-92
[15] = tested on: HT-29
[16] = tested on: Hs-578T
[17] = tested on: IGROV-1
[18] = tested on: K562
[19] = tested on: KM12
[20] = tested on: LOX IMVI
[21] = tested on: M14
[22] = tested on: MCF7
[23] = tested on: MDA-MB-231
[24] = tested on: MDA-MB-435
[25] = tested on: MDA-N
[26] = tested on: MOLT-4
[27] = tested on: Malme-3M
[28] = tested on: NCI-H226
[29] = tested on: NCI-H23
[30] = tested on: NCI-H460
[31] = tested on: NCI/ADR-RES
[32] = tested on: OVCAR-3
[33] = tested on: OVCAR-4
[34] = tested on: OVCAR-5
[35] = tested on: OVCAR-8
[36] = tested on: PC-3
[37] = tested on: RPMI-8226
[38] = tested on: RXF 393
[39] = tested on: SF-268
[40] = tested on: SF-295
[41] = tested on: SF-539
[42] = tested on: SK-MEL-28
[43] = tested on: SK-MEL-2
[44] = tested on: SK-MEL-5
[45] = tested on: SK-OV-3
[46] = tested on: SN12C
[47] = tested on: SNB-19
[48] = tested on: SNB-75
[49] = tested on: SR
[50] = tested on: SW-620
[51] = tested on: T47D
[52] = tested on: TK-10
[53] = tested on: U-251
[54] = tested on: UACC-257
[55] = tested on: UACC-62
[56] = tested on: UO-31

For `CCN1C[C@]2(C)CC[C@H](OCc3ccccc3)C34C5C[C@@H]6CC[C@](O)(C(C[C@@H]32)C14)C5[C@H]6OCc1ccccc1` (stereo partly specified), which GI50 [1] is on record?
Its GI50 is > 100 µM (inactive).

What about the GI50 [2] of the same compound?
Its GI50 is > 100 µM (inactive).

What about the GI50 [3] of the same compound?
Its GI50 is > 100 µM (inactive).

And the GI50 [4]?
Its GI50 is 32.4 µM (inactive).

What about the GI50 [5] of the same compound?
Its GI50 is > 100 µM (inactive).

What about the GI50 [6] of the same compound?
The GI50 was 56.5 µM (inactive).

What about the GI50 [7] of the same compound?
Its GI50 is 42 µM (inactive).

What about the GI50 [8] of the same compound?
The GI50 was > 100 µM (inactive).

And the GI50 [9]?
The GI50 was 44.7 µM (inactive).

And the GI50 [10]?
The GI50 was 20 µM (inactive).

What about the GI50 [11] of the same compound?
The GI50 was 42.7 µM (inactive).

What about the GI50 [12] of the same compound?
Its GI50 is over 100 µM.

And the GI50 [13]?
Its GI50 is > 100 µM (inactive).

And the GI50 [14]?
Its GI50 is > 100 µM (inactive).

What about the GI50 [15] of the same compound?
Its GI50 is 55.2 µM (inactive).

And the GI50 [16]?
Its GI50 is > 100 µM (inactive).

What about the GI50 [17] of the same compound?
Its GI50 is 92.3 µM (inactive).

What about the GI50 [18] of the same compound?
Its GI50 is 55.6 µM (inactive).

What about the GI50 [19] of the same compound?
The GI50 was 38.5 µM (inactive).

And the GI50 [20]?
The GI50 was > 100 µM (inactive).

What about the GI50 [21] of the same compound?
The GI50 was 46.9 µM (inactive).

And the GI50 [22]?
The GI50 was 7.01 µM (inactive).

And the GI50 [23]?
Its GI50 is 52.1 µM (inactive).

And the GI50 [24]?
Its GI50 is 90.8 µM (inactive).

What about the GI50 [25] of the same compound?
Its GI50 is 75.5 µM (inactive).

What about the GI50 [26] of the same compound?
Its GI50 is 16.7 µM (inactive).

And the GI50 [27]?
The GI50 was > 100 µM (inactive).

What about the GI50 [28] of the same compound?
The GI50 was > 100 µM (inactive).

What about the GI50 [29] of the same compound?
Its GI50 is > 100 µM (inactive).

What about the GI50 [30] of the same compound?
The GI50 was 31.2 µM (inactive).

And the GI50 [31]?
Its GI50 is > 100 µM (inactive).

What about the GI50 [32] of the same compound?
The GI50 was 35.6 µM (inactive).

And the GI50 [33]?
The GI50 was 85.1 µM (inactive).

What about the GI50 [34] of the same compound?
Its GI50 is > 100 µM (inactive).

And the GI50 [35]?
Its GI50 is 93.8 µM (inactive).

And the GI50 [36]?
The GI50 was 21.7 µM (inactive).

What about the GI50 [37] of the same compound?
The GI50 was 31 µM (inactive).

And the GI50 [38]?
Its GI50 is 53.1 µM (inactive).

And the GI50 [39]?
Its GI50 is > 100 µM (inactive).

What about the GI50 [40] of the same compound?
Its GI50 is > 100 µM (inactive).

What about the GI50 [41] of the same compound?
Its GI50 is > 100 µM (inactive).

What about the GI50 [42] of the same compound?
The GI50 was > 100 µM (inactive).

What about the GI50 [43] of the same compound?
Its GI50 is 83.9 µM (inactive).

What about the GI50 [44] of the same compound?
Its GI50 is 51.3 µM (inactive).

What about the GI50 [45] of the same compound?
The GI50 was > 100 µM (inactive).

What about the GI50 [46] of the same compound?
The GI50 was > 100 µM (inactive).

What about the GI50 [47] of the same compound?
Its GI50 is > 100 µM (inactive).

And the GI50 [48]?
The GI50 was 49 µM (inactive).

What about the GI50 [49] of the same compound?
The GI50 was 54.8 µM (inactive).

What about the GI50 [50] of the same compound?
The GI50 was > 100 µM (inactive).

What about the GI50 [51] of the same compound?
Its GI50 is 56.1 µM (inactive).

What about the GI50 [52] of the same compound?
The GI50 was 45.8 µM (inactive).

And the GI50 [53]?
Its GI50 is 64.9 µM (inactive).

And the GI50 [54]?
Its GI50 is 29.9 µM (inactive).

And the GI50 [55]?
Its GI50 is > 100 µM (inactive).

And the GI50 [56]?
Its GI50 is 73.1 µM (inactive).
